Each structure is given as a SMILES string.

`*/C(C)=C(/*)CCCCC` (repeat unit) displayed a glass transition temperature of 180.00 °C.

In turn, `*=NP(=NP(=NC(=*)Oc1ccc(C(F)(F)F)cc1)(Oc1ccc(C(F)(F)F)cc1)Oc1ccc(C(F)(F)F)cc1)(Oc1ccc(C(F)(F)F)cc1)Oc1ccc(C(F)(F)F)cc1` (repeat unit) came in with a glass transition temperature of 31.00 °C.

`*=NP(=NP(=NC(=*)Oc1ccc(OC)cc1)(Oc1ccc(OC)cc1)Oc1ccc(OC)cc1)(Oc1ccc(OC)cc1)Oc1ccc(OC)cc1` (repeat unit): the glass transition temperature was 37.00 °C.

Turning to `*CC(*)(C#N)C(=O)OCCCCCCC` (repeat unit), the glass transition temperature was 102.00 °C.

`*CC(*)(C)C(=O)NC(=O)OC(C)COc1ccc(S(=O)(=O)c2ccc(OCC(C)O)cc2)cc1` (repeat unit) showed a glass transition temperature of 73.00 °C.

`*CC(*)(C)C(=O)NC(C)c1cccc2ccccc12` (repeat unit) displayed a glass transition temperature of 171.00 °C.

In turn, `*CC(*)(C)C(=O)NC(C)c1ccccc1` (repeat unit) gave a glass transition temperature of 156.50 °C.

`*CC(*)(C)C(=O)O` (repeat unit) gave a glass transition temperature of 161.70 °C.

`*CC(*)(C)C(=O)OC(C(F)(F)F)C(F)(F)F` (repeat unit) gave a glass transition temperature of 75.00 °C.

As to `*CC(*)(C)C(=O)OC12CC3CC(CC(C3)C1)C2` (repeat unit), the glass transition temperature was 183.00 °C.

As for `*CC(*)(C)C(=O)OC1CC(C)CC(C)(C)C1` (repeat unit), the glass transition temperature turned out to be 125.00 °C.

In turn, `*CC(*)(C)C(=O)OC1CC2CCC1(C)C2(C)C` (repeat unit) registered a glass transition temperature of 180.50 °C.

As to `*CC(*)(C)C(=O)OC1CCC2CCCCC2C1` (repeat unit), the glass transition temperature worked out at 145.00 °C.

`*CC(*)(C)C(=O)OC1CCCC(C)C1` (repeat unit) had a glass transition temperature of 89.00 °C.

Turning to `*CC(*)(C)C(=O)OCC(=O)Nc1cc(C)on1` (repeat unit), the glass transition temperature was 128.00 °C.

As to `*CC(*)(C)C(=O)OCC(C)(C)C1OCC(C)(C)CO1` (repeat unit), the glass transition temperature is 118.00 °C.

As for `*CC(*)(C)C(=O)OCC(C)Oc1ccc(-c2ccc(-c3ccc(C#N)cc3)cc2)cc1` (repeat unit), the glass transition temperature amounted to 140.00 °C.

In turn, `*CC(*)(C)C(=O)OCC1(C)COCOC1` (repeat unit) had a glass transition temperature of 142.00 °C.

The compound `*CC(*)(C)C(=O)OCC1CC(NC(=O)C2CC(NC(=O)OC(C)(C)C)CN2C(=O)OC(C)(C)C)CN1C(=O)C1CC(NC(=O)OC(C)(C)C)CN1C(=O)OC(C)(C)C` (repeat unit) came in with a glass transition temperature of 200.00 °C.

Compound `*CC(*)(C)C(=O)OCC1CCC1` (repeat unit) yielded a glass transition temperature of 114.00 °C.

As to `*CC(*)(C)C(=O)OCC1COC(CP(=O)(OCC)OCC)O1` (repeat unit), the glass transition temperature was 115.00 °C.

In turn, `*CC(*)(C)C(=O)OCC1COCCOCCOCCO1` (repeat unit) had a glass transition temperature of 35.00 °C.

In the case of `*CC(*)(C)C(=O)OCC1OC(n2ccc(=O)[nH]c2=O)C(O)C1O` (repeat unit), the glass transition temperature was determined as 143.50 °C.

For the compound `*CC(*)(C)C(=O)OCC=C` (repeat unit), the glass transition temperature was 94.00 °C.

`*CC(*)(C)C(=O)OCCBr` (repeat unit) registered a glass transition temperature of 52.00 °C.

`*CC(*)(C)C(=O)OCCC#N` (repeat unit) showed a glass transition temperature of 91.00 °C.

`*CC(*)(C)C(=O)OCCC(C)CC(C)(C)C` (repeat unit) gave a glass transition temperature of 1.00 °C.

As to `*CC(*)(C)C(=O)OCCC1CCCCC1` (repeat unit), the glass transition temperature is 110.00 °C.

As to `*CC(*)(C)C(=O)OCCCCC(F)(F)C(F)(F)C(F)(F)C(F)(F)F` (repeat unit), the glass transition temperature is 23.00 °C.

Compound `*CC(*)(C)C(=O)OCCCCCC(=O)Oc1ccc(OC(=O)c2ccc(OCCCCC)cc2)cc1` (repeat unit) gave a glass transition temperature of 50.00 °C.

`*CC(*)(C)C(=O)OCCCCCC(=O)Oc1ccc(OC(=O)c2ccc(OCCCCCC)cc2)cc1` (repeat unit) had a glass transition temperature of 44.00 °C.

The compound `*CC(*)(C)C(=O)OCCCCCCC(F)(F)C(F)(F)C(F)(F)C(F)(F)C(F)(F)C(F)(F)C(F)(F)C(F)(F)C(F)(F)C(F)(F)C(F)(F)C(F)(F)F` (repeat unit) yielded a glass transition temperature of 84.00 °C.

As to `*CC(*)(C)C(=O)OCCCCCCCC/C=C/CCCCCCCC` (repeat unit), the glass transition temperature was -40.00 °C.

With `*CC(*)(C)C(=O)OCCCCCCCCCCCCCC` (repeat unit), the glass transition temperature is -72.00 °C.

Compound `*CC(*)(C)C(=O)OCCCCCCCCCCCCOc1ccc2cc(C(=O)Oc3ccccc3)ccc2c1` (repeat unit) came in with a glass transition temperature of 12.00 °C.

Compound `*CC(*)(C)C(=O)OCCCCCCCCCCCOc1ccc(/N=N/c2ccc(OC(=O)c3ccc4c(c3)OCCOCCOCCOCCO4)cc2)cc1` (repeat unit) displayed a glass transition temperature of 59.00 °C.

`*CC(*)(C)C(=O)OCCCCCCCCCCOc1ccc(/N=N/c2ccc(C3OCC4(CO3)CC3C=CC4C3)cc2)cc1` (repeat unit): the glass transition temperature amounted to 103.20 °C.

The compound `*CC(*)(C)C(=O)OCCCCCCCCCCOc1ccc(/N=N/c2ccccc2)cc1` (repeat unit) registered a glass transition temperature of 56.00 °C.

For `*CC(*)(C)C(=O)OCCCCCCCCCCOc1ccc(OC(=O)c2ccc(OC)c(Br)c2)cc1` (repeat unit), the glass transition temperature turned out to be 29.00 °C.

With `*CC(*)(C)C(=O)OCCCCCCCCOc1ccc2cc(C(=O)Oc3ccccc3)ccc2c1` (repeat unit), the glass transition temperature amounted to 34.00 °C.

`*CC(*)(C)C(=O)OCCCCCCCOc1ccc2cc(C(=O)Oc3ccccc3)ccc2c1` (repeat unit): the glass transition temperature was found to be 40.00 °C.

Turning to `*CC(*)(C)C(=O)OCCCCCCOc1ccc(-c2ccc(C#N)cc2)cc1` (repeat unit), the glass transition temperature was determined as 63.00 °C.

In turn, `*CC(*)(C)C(=O)OCCCCCCOc1ccc(/N=N/c2ccc(OC)cc2)cc1` (repeat unit) displayed a glass transition temperature of 91.00 °C.

The compound `*CC(*)(C)C(=O)OCCCCCCOc1ccc(C(=O)Oc2ccc(-c3cccc(OC(=O)c4ccc(OC(=O)c5ccc(OCCCCCCCCCCCC)cc5)cc4)c3)cc2)cc1` (repeat unit) displayed a glass transition temperature of 73.00 °C.

As to `*CC(*)(C)C(=O)OCCCCCCOc1ccc(C(=O)Oc2ccc(/N=N/c3ccc(C)cc3)c3ccccc23)cc1` (repeat unit), the glass transition temperature was found to be 40.00 °C.

Regarding `*CC(*)(C)C(=O)OCCCCCCOc1ccc(C(=O)Oc2ccc(/N=N/c3ccc(Cl)cc3)c3ccccc23)cc1` (repeat unit), the glass transition temperature turned out to be 50.00 °C.

Turning to `*CC(*)(C)C(=O)OCCCCCCOc1ccc(C(=O)Oc2ccc(C#N)cc2)cc1` (repeat unit), the glass transition temperature amounted to 43.00 °C.

In turn, `*CC(*)(C)C(=O)OCCCCCCOc1ccc(OC(=O)c2ccc(OCCCC)cc2)cc1` (repeat unit) returned a glass transition temperature of 36.00 °C.

`*CC(*)(C)C(=O)OCCCCCCOc1ccc(OC(=O)c2ccc(OCCCCCC)cc2)cc1` (repeat unit) yielded a glass transition temperature of 16.00 °C.

`*CC(*)(C)C(=O)OCCCCCCOc1ccc(OC(=O)c2ccc(OCCCCCCCC)cc2)cc1` (repeat unit) returned a glass transition temperature of -1.00 °C.

For `*CC(*)(C)C(=O)OCCCCCCc1ccc(/N=N/c2ccc(OC(F)(F)F)cc2)cc1` (repeat unit), the glass transition temperature was determined as 194.50 °C.

In turn, `*CC(*)(C)C(=O)OCCCCCOc1ccc2cc(C(=O)Oc3ccccc3)ccc2c1` (repeat unit) registered a glass transition temperature of 48.00 °C.

As to `*CC(*)(C)C(=O)OCCCCOc1ccc(OC(=O)c2ccc(OC)cc2)cc1` (repeat unit), the glass transition temperature was 57.00 °C.

`*CC(*)(C)C(=O)OCCCCOc1ccc(OC(=O)c2ccc(OCCCC)cc2)cc1` (repeat unit) registered a glass transition temperature of 51.00 °C.

`*CC(*)(C)C(=O)OCCCCOc1ccc2cc(C(=O)Oc3ccccc3)ccc2c1` (repeat unit) had a glass transition temperature of 88.00 °C.

As for `*CC(*)(C)C(=O)OCCCCc1ccc(/N=N/c2ccc(OC(F)(F)F)cc2)cc1` (repeat unit), the glass transition temperature is 203.50 °C.

As for `*CC(O)CN(*)c1cc(C)c(/N=N/c2ccc([N+](=O)[O-])cc2C)c(C)c1` (repeat unit), the glass transition temperature came to 149.00 °C.

Consider `*CC(O)CN(*)c1cc(C)cc(C)c1` (repeat unit), for which the glass transition temperature is 80.00 °C.

With `*CC(O)CN(*)c1ccc(/N=N/c2ccc([N+](=O)[O-])cc2C)cc1` (repeat unit), the glass transition temperature came out at 156.00 °C.

On to `*CC(O)CN(C)S(=O)(=O)c1cccc(S(=O)(=O)N(C)CC(O)COc2ccc(C(C)(C)c3ccc(O*)cc3)cc2)c1` (repeat unit), for which the glass transition temperature worked out at 76.00 °C.

The compound `*CC(O)CN(C)S(=O)(=O)c1cccc(S(=O)(=O)N(C)CC(O)COc2ccc(S(=O)(=O)c3ccc(O*)cc3)cc2)c1` (repeat unit) had a glass transition temperature of 100.00 °C.

The compound `*CC(O)CN(C)S(=O)(=O)c1cccc(S(=O)(=O)N(C)CC(O)COc2ccc(Sc3ccc(O*)cc3)cc2)c1` (repeat unit) returned a glass transition temperature of 90.00 °C.

`*CC(OC)C(C(=O)OC)C(*)C(=O)OC` (repeat unit): the glass transition temperature came out at 59.50 °C.

In turn, `*CCCCCCCCCCN/C(=N/*)c1ccccc1` (repeat unit) yielded a glass transition temperature of 10.00 °C.

Take `*N=P(N=P(/N=S(/*)Oc1ccc(-c2ccccc2)cc1)(Oc1ccc(-c2ccccc2)cc1)Oc1ccc(-c2ccccc2)cc1)(Oc1ccc(-c2ccccc2)cc1)Oc1ccc(-c2ccccc2)cc1` (repeat unit): the glass transition temperature worked out at 69.00 °C.

As for `*N=P(N=P(N=S(*)(=O)NC)(NC)NC)(NC)NC` (repeat unit), the glass transition temperature was found to be 22.00 °C.

For `*N=P(N=P(N=S(*)(=O)NCC)(NCC)NCC)(NCC)NCC` (repeat unit), the glass transition temperature was found to be 4.00 °C.

The compound `*N=P(N=P(N=S(*)(=O)NCCC)(NCCC)NCCC)(NCCC)NCCC` (repeat unit) returned a glass transition temperature of 6.00 °C.

In turn, `*OC(CC(*)=O)C(Cl)(Cl)Cl` (repeat unit) gave a glass transition temperature of 163.50 °C.

For the origin of these results see the PolyMetriX glass transition set.
